According to patent US8389509B2, “Substituted pyrazole compounds” (Bristol-Myers Squibb Company, priority 2009, dated 2013):

How the values were obtained:
[1] = target: T1, S1P1 (Homo sapiens, UniProt P21453); assay: S1P1 Binding Assay (33P-S1P competition, CHO membranes); details: membranes of CHO cells expressing human S1P1, 33P-S1P ligand; read-out: S1P1 B IC50
T1 construct: expressed in transfected cells; host or cells: CHO cells
Experimental: Membranes were prepared from CHO cells expressing human S1P1. Cells were dissociated in buffer containing 20 mM HEPES, pH 7.5, 50 mM NaCl, 2 mM EDTA and Protease Inhibitor cocktail (Roche), and disrupted on ice using the Polytron homogenizer. The homogenate was centrifuged at 20,000 rpm (48,000 g) and the supernatant was discarded. The membrane pellets were resuspended in buffer containing 50 mM HEPES, pH 7.5, 100 mM NaCl, 1 mM MgCl2, 2 mM EDTA and stored in aliquots at −80° C. after protein concentration determination.
Membranes (2 μg/well) and 0.03 nM final concentration of ^33P-S1P ligand (1 mCi/ml, American Radiolabeled Chemicals) were added to the compound plates. Binding was performed for 60 min at room temperature, terminated by collecting the membranes onto GF/B filter plates, and radioactivity was measured by TOPCOUNT®. The competition data of the test compounds over a range of concentrations was plotted as percentage inhibition of radioligand specific binding. The IC50 is defined as the concentration of competing ligand needed to reduce specific binding by 50%.
Compounds of the present invention and Comparative Compound A were tested in the S1P1 binding assay described hereinabove and the results rounded to two digits, shown in Table A were obtained. In some instances, the value is an average of multiple experiments where N is the number of experiments conducted that provided satisfactory dose response curves. When more than one batch of an example was tested, the value presented is from the batch which allowed a comparison of GTPγS S1P1 and GTPγS S1P3 in Method A (Data shown in Table B). Data was not averaged across different batches of an example compound.

[2] = tested on: circulating lymphocytes; assay: Blood Lymphocyte Reduction Assay (BLR) in rats; format: in vivo, Lewis rats; details: oral
Experimental: (§1) Blood Lymphocyte Reduction Assay (BLR) in Rodents
(§2) Lewis rats or BALB/c mice were dosed orally with test article (as a solution or suspension in the vehicle) or vehicle alone (polyethylene glycol 300, “PEG300”). Blood was drawn at 4 hr and 24 h by retro-orbital bleeding. Blood lymphocyte counts were determined on an ADVIA 120 Hematology Analyzer (Siemens Healthcare Diagnostics). The results were measured as a reduction in the percentage of circulating lymphocytes as compared to the vehicle treated group at the 4 hr and 24 hr measurement. The results represent the average results of all animals within each treatment group (n=3-4).
(§3) Compounds of the present invention were tested in the Blood Lymphocyte Reduction assay (BLR) described hereinabove and the results are shown in Table D for rats and Table E for mice.

[3] = tested on: circulating lymphocytes; assay: Blood Lymphocyte Reduction Assay (BLR) in mice; format: in vivo, BALB/c mice; details: oral
Experimental: as §1, §2, §3

[4] = target: T2, S1P3 (Homo sapiens, UniProt Q99500); assay: Method A: Receptor [35S] GTPγS Binding Assay, S1P3; format: biochemical; set-up: expressed in transfected cells; details: EDG3-Gal5-bla HEK293T cell membranes
Experimental: Method A: Receptor [35S] GTPγS Binding Assays
Compounds were loaded in a 384 FALCON® v-bottom plate (0.5 μl/well in a 3-fold dilution). Membranes prepared from S1P1/CHO cells or EDG3-Gal5-bla HEK293T cells were added to the compound plate (40 μl/well, final protein 3 μg/well) with MULTIDROP®. [^35S]GTP (1250 Ci/mmol, Perkin Elmer) was diluted in assay buffer: 20 mM HEPES, pH7.5, 10 mM MgCl2, 150 mM NaCl, 1 mM EGTA, 1 mM DTT, 10 μM GDP, 0.1% fatty acid free BSA, and 10 μg/ml Saponin to 0.4 nM. 40 μl of the [^35S] GTP solution was added to the compound plate with a final concentration of 0.2 nM. The reaction was kept at room temperature for 45 min. At the end of incubation, all the mixtures in the compound plate were transferred to a 384 well FB filter plates via GPCR robot system. The filter plate was washed with water 4 times by using the modified manifold Embla plate washer and dried at 60° C. for 45 min. 30 μA of MicroScint 20 scintillation fluid was added to each well for counting at Packard TOPCOUNT®. EC50 is defined as the agonist concentration that corresponds to 50% of the Ymax (maximal response) obtained for each individual compound tested.
(§4) Compounds of the present invention and Comparative Compound A were tested in the Receptor [^35S] GTPγS Binding Assays (Method A) and Receptor [^35S] In some instances, the value is an average of multiple experiments where N is the number of experiments conducted that provided satisfactory dose response curves. When more than one batch of an example was tested, the value presented is from a batch which allowed a comparison of GTPγS S1P1 and GTPγS S1P3 in which the most number of experiments were performed. Preferably, the same batch was examined in Method A and Method B. Data was not averaged across different batches of an example compound.

[5] = target: T2, S1P3; assay: Method B: Receptor [35S] GTPγS SPA Binding Assay, S1P3; format: biochemical; set-up: expressed in transfected cells; host or cells: CHO cells; details: S1P3 transfected CHO cell membranes
Experimental: Method B: Receptor [^35S] GTPγS SPA Binding Assays
Membranes prepared from S1P1 or S1P3 transfected CHO cells (2 μg protein) were incubated in 96-well white plates (CORNING® 3693) with test compounds diluted in DMSO, in 50 μl of reaction mixture containing 7.5 μA WGA-PVT beads (20 mg/ml), and 5 μM GDP, 20 mM HEPES pH 7.4, 100 mM NaCl, 1 mM EDTA, 5 mM MgCl2, 10 μg/ml saponin, 0.1% BSA, and 1 μM leupeptin. The assay was initiated with the addition of […] of 0.2 nM [^35S]-GTPγS (1250 Ci/mmol; NEN) in assay buffer. After 90 min incubation at room temperature, spin the plate at 1000 rpm for 5 min. The bound radionuclides were measured at TOPCOUNT®, expressed as % response relative to S1P (1 μM) activation. Data was analyzed using the four parameter logistic equation in Excel. The four parameters in the equation, Y=A+((B−A)/(1+((EC50/X)^D))), are described as following: A is the Y value (agonist activity) at the bottom plateau; B is the Y value at the top plateau; EC50 is the X value (agonist concentration) when the response is halfway between bottom and top; D is Hill coefficient. Curves were not generated for compounds having Ymax values were below 50%.
as §4

T2 sequence (Q99500 whole entry): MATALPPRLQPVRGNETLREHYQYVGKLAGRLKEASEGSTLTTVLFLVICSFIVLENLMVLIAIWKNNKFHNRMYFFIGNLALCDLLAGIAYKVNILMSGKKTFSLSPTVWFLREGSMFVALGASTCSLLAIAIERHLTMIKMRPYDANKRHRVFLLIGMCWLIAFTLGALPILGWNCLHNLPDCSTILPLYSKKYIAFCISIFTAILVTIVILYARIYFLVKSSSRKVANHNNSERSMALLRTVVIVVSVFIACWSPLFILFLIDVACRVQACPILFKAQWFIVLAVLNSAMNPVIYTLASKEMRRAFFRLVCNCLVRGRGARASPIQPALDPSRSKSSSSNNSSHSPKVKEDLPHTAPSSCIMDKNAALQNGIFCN
T1 sequence (P21453 whole entry): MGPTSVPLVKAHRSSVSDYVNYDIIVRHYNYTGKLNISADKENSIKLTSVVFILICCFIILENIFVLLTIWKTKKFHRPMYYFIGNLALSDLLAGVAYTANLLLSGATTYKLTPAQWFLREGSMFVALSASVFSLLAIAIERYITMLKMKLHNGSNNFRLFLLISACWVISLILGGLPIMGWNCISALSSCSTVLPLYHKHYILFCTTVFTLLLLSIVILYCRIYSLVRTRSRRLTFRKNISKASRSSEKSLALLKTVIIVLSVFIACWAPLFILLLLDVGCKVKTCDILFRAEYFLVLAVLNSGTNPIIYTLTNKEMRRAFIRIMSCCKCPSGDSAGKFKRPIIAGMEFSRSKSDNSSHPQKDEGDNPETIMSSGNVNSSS

IC50 [1]: 0.0004 µM
EC50 [4]: 6.7 µM
EC50 [5]: 4.4 µM
Compound: O=C(O)C1CN(Cc2ccc(-c3noc(-c4cnn(-c5ccccn5)c4C(F)(F)F)n3)cc2)C1 [Example 1, 1-(4-(5-(1-(Pyridin-2-yl)-5-(trifluoromethyl)-1H-pyrazol-4-yl)-1,2,4-oxadiazol-3-yl)benzyl)azetidine-3-carboxylic acid]
% reduction in lymphocytes at 4 hr. ([2]; 0.04 mg/kg): 49%
% reduction in lymphocytes at 24 hr. ([2]; 0.04 mg/kg): 6%
% reduction in lymphocytes at 4 hr. ([2]; 0.2 mg/kg): 77%
% reduction in lymphocytes at 24 hr. ([2]; 0.2 mg/kg): 15%
% reduction in lymphocytes at 4 hr. ([2]; 1.0 mg/kg): 86%
% reduction in lymphocytes at 24 hr. ([2]; 1.0 mg/kg): 61%
% reduction in lymphocytes at 4 hr. ([2]; 3.0 mg/kg): 81%
% reduction in lymphocytes at 24 hr. ([2]; 3.0 mg/kg): 75%
% reduction in lymphocytes at 4 hr. ([3]; 0.3 mg/kg): 74%
% reduction in lymphocytes at 24 hr. ([3]; 0.3 mg/kg): 30%
% reduction in lymphocytes at 4 hr. ([3]; 1.0 mg/kg): 85%
% reduction in lymphocytes at 24 hr. ([3]; 1.0 mg/kg): 68%
% reduction in lymphocytes at 4 hr. ([3]; 3.0 mg/kg): 85%
% reduction in lymphocytes at 24 hr. ([3]; 3.0 mg/kg): 76%
% reduction in lymphocytes at 4 hr. ([3]; 10.0 mg/kg): 84%
% reduction in lymphocytes at 24 hr. ([3]; 10.0 mg/kg): 88%
